Experimental data taken from patent EP4663631A1, “POLYMORPH AS PROTEIN KINASE MEK INHIBITOR, AND PREPARATION METHOD THEREFOR AND USE THEREOF” (Shanghai Kechow Pharma, Inc., priority 2023, dated 2024).
Like-named read-outs stand apart in the source and are kept apart here.

Tested on: SK-MEL-2 cells
Assay: MTT proliferation inhibition, NRAS mutant melanoma cell line
Conditions: Homo sapiens, SK-MEL-2, 72 h
Description: All cells were provided by Beijing Cancer Hospital. Human melanoma cell line SK-MEL-2 (NRAS Q61R) was cultured with MEM supplemented with 10%FBS and penicillin streptomycin in an incubator at 37 °C and 5% carbon dioxide.
When the confluence of the cultured cells reached more than 80%, the adherent cells were digested with trypsin and the cell precipitate was collected by centrifugation, counted, and 90 µL of the cell suspension was seeded in a 96-well plate at the appropriate density. […] Each concentration was set up three multiple Wells, a total of 9 concentration points. The Wells added with the same volume of 5% DMSO were used as control, and the final concentration of DMSO was 0.5%. After 3 days of drug treatment, the cell viability was detected by MTT, and 10 µL MTT was added to each well and incubated in the incubator for another 4 hours. After the supernatant was discarded and 150 µL DMSO was added to dissolve the crystal, and the absorbance at 490 nm was detected by microplate reader. The above experiments were repeated three times. The dose-effect curve was made and IC50 was calculated by GraphPad Prism 8 software.

`Cn1cnc2c(F)c(Nc3ccc(Br)cc3F)c(C(=O)NOCCO)cc21` [MEK162] showed an IC50 (read-out: IC5o(nM) 1st) of 74.8 nM, an IC50 (read-out: IC5o(nM) 2nd) of 68.3 nM and an IC50 (read-out: IC5o(nM) 3rd) of 222 nM. The IC50 (read-out: Mean value (nM)) was 122 nM.
